From US20250282720A1, “ALKYLSULFENYL THIOCARBONATES: PRECURSORS TO HYDROPERSULFIDES POTENTLY ATTENUATE OXIDATIVE STRESS” (The Johns Hopkins University, priority 2021, published 2025)

Assays:
H9c2 cardiac myoblasts [1] = assay: H9c2 cell protection from H2O2-mediated oxidative stress, CCK-8; format: cell-based, rat; conditions: 50 μM, 4 and 8 h, then H2O2 200 μM
Method: The cytoprotective effects of 1a was then measured against oxidative stress.
(§2) H9c2 embryonic rat heart myoblasts were obtained from the American Type Culture Collection. Cells were grown in Dulbecco's minimal essential medium (DMEM), supplemented with fetal bovine serum (FBS) 10%, penicillin 100 U/mL and streptomycin 100 μg/mL. They were propagated in T75-flasks, split before reaching 70-80% confluence (usually every day or every second day), and used within 11 passages. Cells were passaged to tissue culture treated 96-well microtiter plates at the specified density in 180 μL volumes and incubated for 24 h.
Cells were seeded at a density of 5×10^3 cells/well. After 24 h, precursor 1a or by-product 4a was added at 20 μL volumes using DMSO:H2O (<0.01% DMSO as the vehicle). Cells were incubated for 2 h before media was removed and the cells gently washed with PBS (pH 7.4). Then, 180 μL of fresh media and 20 μL H2O2 diluted into H2O were added and cells were incubated for an additional 2 h. At the completion of H2O2 exposure, each well is carefully washed 3 times with PBS (pH 7.4) before adding 100 μL of media, without-FBS, containing 10% v/v CCK-8 (Dojindo) and incubated for 3 h prior to obtaining absorbance values at 450 nm. The relative % viability was calculated as 100 times the ratio of the Abs450 (pre-treated, H2O2-exposed) over Abs450 (vehicle-treated, non H2O2-exposed).

[2] = test system: FA skin fibroblasts (GM04078); assay: Cytotoxicity in FA skin fibroblasts; conditions: 24 h of exposure, at least up to 100 μM
Text: (§1) Initially, we measured the cytotoxicity of AST in FA skin fibroblasts (GM04078), obtained from the Coriell Institute, to ensure that the RSSH donor itself is not cytotoxic. […] We then measured the ability of AST to confer cytoprotection in FA fibroblasts against hydrogen peroxide (H2O2) stress.

FA fibroblasts (GM04078) = assay: Cytoprotection against H2O2 stress in FA fibroblasts, CCK8; format: cell-based, human; conditions: 4 h pretreatment, H2O2 75 μM for 4 h
Method: FIG. 10A, pretreatment of AST with varying concentrations in FA fibroblasts (GM04078, Coriell Institute) for 4 h followed by 4 h treatment with H2O2. Viability was measured using CCK8 assay. FIG. 10B, pretreatment of AST with varying concentrations in FA fibroblasts for 4 h followed by treatment with erastin for 24 h. […] Group comparisons are determined by a one-way analysis of variance (ANOVA) with Dunnet's correction post-hoc test using GraphPad Prism 8;
as §1

H9c2 cardiac myoblasts [3] = assay: Cytotoxicity study, Sytox Green viability assay; conditions: up to 100 mM, 24 h
Method: as §2
Cells were seeded at a density of 1×10^4 cells/well. After 24 h, the media was replaced and compound added in 20 μL volumes using DMSO:H2O (<0.01% DMSO) as the vehicle. Cells were incubated for an additional 24 h before media was removed. Then, 100 μL of media containing 3 μM Sytox Green nucleic acid stain (Invitrogen) was added and the cells were incubated for 2 h before fluorescence readings were obtained at 485Ex/538Em (Step 1). Finally, an additional 100 μL of media containing 3 μM Sytox and 0.2% Triton X-100 was added to permeabilize all cells and incubated for 1 h before fluorescence values measured (Step 2). The relative % cells surviving was calculated as a 100% minus the ratio of the fluorescence value of Step 1 over Step 2 (% cells surviving=100%−(FL538 (Step 1)/FL538 (Step 2)). See FIG. 8.

[4] = Decomposition of precursors in the presence of thiol (NAC / N-acetyl cysteine methyl ester), HPLC; format: physicochemical; conditions: 5 equiv NAC, PBS pH 7.4, HPLC
Method: Initially, the decomposition of 1a was analyzed in the presence of 5 equiv of N-acetylcysteine (NAC) in PBS (pH 7.4) by HPLC. […] To investigate the mechanism, this reaction was monitored by UPLC-MS. […] Additionally, a small amount of unsymmetrical dialkyl polysulfide (pink highlight, R^1SSnSR^2, n=0-3) is observed, likely formed via NAC reaction with symmetrical dialkyl polysulfides (Scheme 1-5, eq. 7). As expected, a new peak at 5.65 min corresponding to N-acetyl cysteine-thiocarbonate 9a also is observed, confirming thiol attack at the perthiocarbonate carbonyl carbon of 1a to release RSSH. Due to the unstable nature of RSSH under these experimental conditions, the yield of the by-product 9a was measured as an indication of RSSH yield. The observation of RSSH-derived polysulfides formation as major products led us to anticipate the efficient formation of by-product 9a. […] The lower observed yield of 9a is likely due to its further reaction with RSSH under these conditions. […]
To a solution of N-acetyl cysteine methyl ester (500 μM) in pH 7.4 phosphate buffer saline (100 mM) containing DTPA (100 μM), precursor 1a or 8 (100 μM) was added. […] At different time points, an aliquot of the reaction mixture (500 μL) was withdrawn and transferred to pre-cooled 0.1% formic acid (500 μL) and analyzed using HPLC. […]

Oc1ccccc1 [Precursor 4a, phenol]
cytoprotection against H2O2-mediated toxicity (by-product control) (H9c2 cardiac myoblasts [1]): no protective effect
toxicity toward FA fibroblasts [2]: do not show toxicity
cytoprotection against H2O2 stress (FA fibroblasts (GM04078)): ineffective
toxicity toward H9c2 cells (H9c2 cardiac myoblasts [3]): no toxicity

COC(=O)C(NC(C)=O)C(C)(C)SSC(=O)OCc1ccccc1 (centres unmarked) [Precursor 8, Methyl 2-acetamido-3-(((benzyloxy)carbonyl)disulfaneyl)-3-methylbutanoate]
t1/2 of decomposition in the presence of thiol [4]: 4.0 ± 0.7 min
